Data from ChEMBL document CHEMBL1133222 (2000).

Key:
[1] = biological target: T1, Endothelin receptor type B (Rattus norvegicus) (UniProt P21451); conditions: Cerebellum
T1 sequence (whole entry): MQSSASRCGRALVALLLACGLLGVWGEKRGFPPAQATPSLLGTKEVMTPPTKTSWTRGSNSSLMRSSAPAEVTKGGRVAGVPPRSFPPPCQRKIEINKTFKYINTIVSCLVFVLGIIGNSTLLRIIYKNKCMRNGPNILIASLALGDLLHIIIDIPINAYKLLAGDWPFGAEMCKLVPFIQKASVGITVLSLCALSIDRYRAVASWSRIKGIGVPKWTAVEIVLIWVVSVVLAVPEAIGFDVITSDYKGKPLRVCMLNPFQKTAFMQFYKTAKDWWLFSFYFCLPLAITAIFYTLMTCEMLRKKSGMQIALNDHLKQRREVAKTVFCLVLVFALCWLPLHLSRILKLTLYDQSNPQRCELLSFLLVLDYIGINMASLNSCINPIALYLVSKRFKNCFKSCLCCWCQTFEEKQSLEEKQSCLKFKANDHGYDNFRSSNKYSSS
Description: Inhibition of (125 I)-endothelin 1 binding to endothelin B receptor in rat cerebellum

[2] = biological target: T2, Endothelin-1 receptor (Rattus norvegicus) (UniProt P26684); assay: Inhibition of (125 I)-endothelin 1 binding to endothelin A receptor in rat ventricle
T2 sequence (whole entry): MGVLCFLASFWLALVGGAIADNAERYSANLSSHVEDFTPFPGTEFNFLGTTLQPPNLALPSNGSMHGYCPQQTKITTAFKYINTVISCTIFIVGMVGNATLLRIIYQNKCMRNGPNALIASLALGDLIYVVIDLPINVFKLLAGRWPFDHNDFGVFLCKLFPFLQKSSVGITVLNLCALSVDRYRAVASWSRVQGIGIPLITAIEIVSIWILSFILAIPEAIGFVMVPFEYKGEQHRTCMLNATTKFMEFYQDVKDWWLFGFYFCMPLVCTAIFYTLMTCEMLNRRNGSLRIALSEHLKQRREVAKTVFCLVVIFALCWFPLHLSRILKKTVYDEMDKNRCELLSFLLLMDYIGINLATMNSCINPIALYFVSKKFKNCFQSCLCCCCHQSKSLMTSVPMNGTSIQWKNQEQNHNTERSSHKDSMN

[3] = tested on: Rattus norvegicus; assay: Effective dose in rat after intravenous administration; assay type: functional
[4] = tested on: Mus musculus; assay: Effective dose for ET-1 induced death in mice after peroral administration; assay type: functional; conditions: po

Binding affinity [1] [nM]	Binding affinity [2] [nM]	Structure (SMILES)	ED50 [3] [mg/kg]	ED50 [4] [mg/kg]
244	7.8	COc1ccc(Cc2c(C(=O)O)n(Cc3cc4c(cc3Br)OCO4)c3ccccc3c2=O)cc1		
789	1.9	COc1cc(Cc2c(C(=O)O)n(Cc3cc4c(cc3Cl)OCO4)c3ccccc3c2=O)cc(OC)c1OC		
606	10.7	COc1ccc(Cc2c(C(=O)O)n(Cc3ccc4c(c3)OCO4)c3ccccc3c2=O)cc1		
190	5.6	C=Cc1ccc(Cc2c(C(=O)O)n(Cc3cc4c(cc3Cl)OCO4)c3ccccc3c2=O)cc1		
570	10.9	O=C(O)c1c(Cc2cccc(Cl)c2Cl)c(=O)c2ccccc2n1Cc1cc2c(cc1Cl)OCO2		
747	8.2	COC(=O)c1cccc(Cc2c(C(=O)O)n(Cc3cc4c(cc3Cl)OCO4)c3ccccc3c2=O)c1		
12000	11000	CCCCc1cn(Cc2ccc(-c3ccccc3-n3cnnn3)cc2)c2ccc(CSc3ccccn3)cc2c1=O		
6630	3.4	O=C(O)C[C@H]1CC[C@H](Cc2c(C(=O)O)n(Cc3cc4c(cc3Cl)OCO4)c3ccccc3c2=O)CC1		
69	1	CCc1cc2c(cc1Cn1c(C(=O)O)c(Cc3ccc(OC)cc3)c(=O)c3ccccc31)OCO2		
549	54.3	COc1ccc(Cc2c(C(=O)O)n(Cc3cc4c(cc3Cl)OCO4)c3ccccc3c2=O)c(OCC(=O)O)c1		
500	3	O=C(O)c1cccc(Cc2c(C(=O)O)n(Cc3cc4c(cc3Cl)OCO4)c3ccccc3c2=O)c1		
166	5.7	O=C(O)c1c(Cc2ccc(Br)cc2)c(=O)c2ccccc2n1Cc1cc2c(cc1Cl)OCO2		
110000	7600	CCCCc1cn(Cc2ccc(-c3ccccc3C(=O)O)cc2)c2ccc(Cn3ccc4ccccc43)cc2c1=O		
5000	4.7	CCOC(=O)C[C@H]1CC[C@H](Cc2c(C(=O)O)n(Cc3cc4c(cc3Cl)OCO4)c3ccccc3c2=O)CC1		
29000	8700	O=C(O)c1cc(=O)c2ccccc2n1Cc1cc2c(cc1Cl)OCO2		
216	1.6	COc1ccc(Cc2c(C(=O)O)n(Cc3cc4c(cc3Cl)OCO4)c3ccccc3c2=O)cc1		
9500	93	O=C(O)CCCCCc1c(C(=O)O)n(Cc2cc3c(cc2Cl)OCO3)c2ccccc2c1=O		
100	1.1	O=C(O)c1c(CC2CCCCC2)c(=O)c2ccccc2n1Cc1cc2c(cc1Cl)OCO2		
1600	20.4	O=C(O)c1c(Cc2cccnc2)c(=O)c2ccccc2n1Cc1cc2c(cc1Cl)OCO2		
16000	255	COc1ccc(Cn2c(C(=O)O)c(Cc3ccc4c(c3)OCO4)c(=O)c3ccccc32)cc1		
244	9.5	COc1ccc(Cc2c(C(=O)O)n(Cc3cc(OC)c4c(c3)OCO4)c3ccccc3c2=O)cc1		
1900	29	O=C(O)c1c(Cc2ccoc2)c(=O)c2ccccc2n1Cc1cc2c(cc1Cl)OCO2		
70	1.8	C=Cc1cc2c(cc1Cn1c(C(=O)O)c(Cc3ccc(OC)cc3)c(=O)c3ccccc31)OCO2		
157	4.1	O=C(O)c1c(Cc2ccccc2)c(=O)c2ccccc2n1Cc1cc2c(cc1Cl)OCO2		
	18.9	COc1ccc(Cc2c(C(=O)O)n(Cc3cc(Br)c4c(c3)OCO4)c3ccccc3c2=O)cc1		
1890	5.7	O=C(O)c1c(Cc2ccco2)c(=O)c2ccccc2n1Cc1cc2c(cc1Cl)OCO2		
17100	4.6	O=C(O)c1ccc(Cc2c(C(=O)O)n(Cc3cc4c(cc3Cl)OCO4)c3ccccc3c2=O)cc1		

Structure (SMILES)	Binding affinity [1] [nM]	Binding affinity [2] [nM]	ED50 [3] [mg/kg]	ED50 [4] [mg/kg]
CCc1cc2c(cc1Cn1c(C(=O)[O-])c(Cc3cccc(C(=O)[O-])c3)c(=O)c3ccccc31)OCO2.[K+].[K+]	571	0.69	0.1	10
